# “Also recorded” adds a separate entry of the source.
# Legend:
# SOD mutant mice [1] = assay: Survival in the SOD mutant mouse model of ALS; format: in vivo
# Experimental: The present study investigates the effects of SPM 927 to protect or to reduce impairments observed in this ALS model. For this purpose behavioral measurements and EMGs are performed in SOD-G93A mice overexpressing mutant human Cu, Zn SOD.
# (§1) The transgenic mouse strain used for this study is G1H (Gurney et al., 1994). The animals begin to show signs of posterior limb weakness at around 3 months of age and die at 4 months.
# (§2) 40 mice are included in the study and divided into 4 groups of 10 mice. • a SOD vehicle group • a SOD treated group (SPM 927 3 mg/kg) • a SOD treated group (SPM 927 10 mg/kg) • a SOD treated group (SPM 927 30 mg/kg)
# (§3) Animals were weighed every day. The general status of the mice was checked daily, especially for the presence of tremor, for skin aspect and for muscle wasting. EMG testing was performed once every week, starting on D70 of age until the death of the animals. The survival rate and the interval from symptom onset until death were recorded.
# The animals were treated from day 60 (before the beginning of the clinical signs) until the animal's death. The treatment was administered twice daily intraperitoneally.
# A global analysis of the data was made using one factor or repeated measures analysis of variance (ANOVA). […]
# SOD mutant mice [2] = assay: Rotarod test in SOD mutant mice; format: in vivo, mouse; conditions: twice daily intraperitoneally from day 60
# Experimental: as §1, §2
# (§4) • Rotarod test: this test evaluates the ability of the animal to stay on a rotating dowel allowing evaluation of motor coordination and proprioceptive sensitivity. The apparatus is a 3 cm diameter automated rod which turns at 12 rounds per minute (Bioseb, Paris, France). The rotarod test measures how long the mouse can maintain itself on the axle without falling. The test is stopped after an arbitrary limit of 120 s. Should the animal fall down before 120 s, the performance is recorded and two additional trials are performed. The mean time of 3 trials is calculated. […] The number of times the mice put their paws through the grid is counted and serves as a measure for motor coordination. • Hanging test: this test evaluates the ability of the animal to hang on a wire. […] The time needed by the animal to catch the string with its hindpaws is recorded (60 s maximum) during three consecutive trials. […]
# SOD mutant mice [3] = assay: Grid test in SOD mutant mice; format: in vivo, mouse
# Experimental: as §1, §2, §4
# SOD mutant mice [4] = assay: Hanging test in SOD mutant mice; format: in vivo, mouse; conditions: twice daily intraperitoneally from day 60
# Experimental: as §1, §2, §4
# SOD mutant mice [5] = assay: Electromyographic recordings (compound muscle action potential) in SOD mutant mice; format: in vivo, mouse
# Experimental: as §1, §2, §3
# Electromyographic recordings were performed using a Neuromatic 2000M electromyography apparatus. During EMG the mice are anesthetized (60 mg kg-1, Imalgène®). The measured parameters are the amplitude and the latency of the compound muscle action potential (CMAP). CMAP is measured in gastrocnemius muscle after stimulation of the sciatic nerve. A reference electrode is inserted near the Achilles tendon and an active needle placed at the base of the tail. A ground needle is inserted on the lower back of the mouse. […] The amplitude (mV) and the latency of the response (ms) are measured. […]
# [6] = twice daily intraperitoneally from day 60, dose not given
substance,measurement,setting,value
(R)-2-acetamide-N-benzyl-3-methoxypropionamide [SPM 927],life-span of SOD mutant mice,"SOD mutant mice [1]; FIG. 1, 3, 10, 30 mg/kg twice daily intraperitoneally from day 60 until death",dose dependently prolongs life-span
same,survival time after onset of symptoms,"SOD mutant mice [1]; chronic treatment twice daily intraperitoneally from day 60, G1H SOD-G93A mice",prolongs survival time after symptom onset; also recorded: prolongs survival time after onset of symptoms
same,motor symptoms in the rotarod test,SOD mutant mice [2],alleviates motor symptoms
same,motor impairment (grid performance),"SOD mutant mice [3]; FIG. 2, 30 mg/kg, twice daily intraperitoneally",attenuates motor impairment
same,motor symptoms in the grid test,SOD mutant mice [3]; [6],alleviates motor symptoms
same,motor symptoms in the hanging test,SOD mutant mice [4],alleviates motor symptoms
same,motor impairment (latency of compound muscle action potential),"SOD mutant mice [5]; FIG. 3, 10 mg/kg, twice daily intraperitoneally",attenuates motor impairment
same,EMG abnormalities,SOD mutant mice [5]; [6],attenuates motor symptoms including abnormalities in electrophysiological recordings (EMG)
